Consider 1 compound from patent US20220193013A1, “Pharmaceutical Composition for Treatment or Prevention of Multiple Inflammatory Disorders” (priority 2020, published 2022).

The subject of one data set is healthy mouse. As to the kind of experiment: cytokine profile and routes of administration in healthy mouse. It is filed as in vivo. The note with it: for VEGF (versus controls): p=0.001. The method, then: This example provides results of a study to evaluate the effect of denatonium acetate on a healthy mouse as measured by cytokine profile and routes of administration of DA. The study groups were: (1) Vehicle group, N=12, treated with distilled water, gavage, BID; (2) DA oral low dose group, N=12, treated with DA at a dose of 23.1 mg/kg (salt weight), gavage, BID; (3) DA oral high dose group, N=12, treated with DA at a dose of 92.4 mg/kg (salt weight), gavage, BID; (4) DA IV low dose group, N=12, treated with DA at a dose of 1 mg/kg (salt weight), iv bolus, QD; (5) DA IV high dose group, N=12, treated with ARD-101 at a dose of 3 mg/kg (salt weight), iv bolus, QD.

The subject of data set [1] is DSS-induced colitis in mice. The data set can be described thus: dextran sulfate sodium (DSS)-induced colitis in mice. It is filed as in vivo, mouse. The text has this: This example provides the results of an in vivo study in a dextran sulfate sodium (DSS)-induced colitis in mice model. Inflammatory bowel diseases (IBD), mainly comprising ulcerative colitis and Crohn's Disease, are complex and multifactorial diseases with unknown etiology. To study human IBD mechanistically, a number of murine models of colitis have been developed. These models are tools to decipher underlying mechanisms of IBD pathogenesis as well as to evaluate potential therapeutics. […] Moreover, many existing IBD-approved drugs have been studied in this model to allow a comparison of new potential drug compounds as compared with existing drugs with approved IBD indications. […] mice were divided into 5 groups of 3-10 mice, provided with standard mouse chow diet ad libitum, and housed up to 5 per cage. Dexamethasone 21-phosphate disodium salt (DMS; Alfa Aesar Catalog #J64083-1G, Lot R02F035) (was used as a positive control. Hemoccult kits were obtained from Beckman (Hemoccult SENSA kit). Dextran sodium sulfate (DSS) reagent grade (MPI Catalog #160110, Lot #6046H, MW 36,000-50,000, CAS 9011-18-1) was supplemented in the water of certain groups to induced IBD-like symptoms. On day −3 treatment began prior to DSS delivery. On day 1 all mice were pre-weighed and given fresh 4-5% DSS in water every day for 5 days and water is then given for the remainder of the study to elicit disease. An additional control group was given water (no DSS) for the duration of the study (10 days). Body weight was measured daily, fecal blood status (hemoccult) was measured 3X per week, fecal consistency 3× per week and general health determined daily. Mice were sacrificed on day 10 and serum obtained for cytokine analysis and colon length and weight determined. There were two control groups of water only and DSS without drug treatment. There were two treatment groups at 69.3 mg/kg (n=10) bid and 23.1 mg/kg bid (n=10).

[2] abbreviates: high-dose of DA, no significant difference observed.

`CC(=O)[O-].CC[N+](CC)(CC(=O)Nc1c(C)cccc1C)Cc1ccccc1` [DA, denatonium acetate]: the “biomarker (cytokine) effects” value in the data set with healthy mouse (either iv DA dose (1 or 3 mg/kg iv bolus QD)) was “no biomarker (cytokine) effects”. Besides, the “VEGF (versus controls)” value with healthy mouse (higher dose oral DA 92.4 mg/kg BID) is listed as “significant decreases”. The “IL-9 (versus controls)” value with healthy mouse (higher dose oral DA 92.4 mg/kg BID, p=0.003) was “significant decreases”. Moreover, in the data set on healthy mouse (higher dose oral DA 92.4 mg/kg BID, p=0.03), the “GM-CSF (versus controls)” value is “significant decreases”. Further, the “KC (versus controls)” value in the data set with healthy mouse (higher dose oral DA 92.4 mg/kg BID, p=0.05) is “significant decreases”. In addition, the side effects result with healthy mouse (iv administration only) is given as “toxic side effects”. The “VEGF (versus controls)” value in the data set on healthy mouse (lower dose oral DA 23.1 mg/kg BID) is recorded as “significant decreases”. Besides, the “G-CSF (versus controls)” value in the data set with healthy mouse (lower dose oral DA 23.1 mg/kg BID, p=0.003) was “significant decreases”. The “MCP-1 (versus controls)” value in the data set with healthy mouse (lower dose oral DA 23.1 mg/kg BID, p=0.005) is reported as “significant decreases”. The “MIP-2 (versus controls)” value in the data set with healthy mouse (lower dose oral DA 23.1 mg/kg BID, p=0.015) is recorded as “significant decreases”. Moreover, in the data set with healthy mouse (lower dose oral DA 23.1 mg/kg BID, p=0.03), the “IL-13 (versus controls)” value is listed as “significant decreases”. Also, in the data set with healthy mouse (lower dose oral DA 23.1 mg/kg BID, p=0.04), the “IL-1α (versus controls)” value was “significant decreases”. Also, the “body weight at day 10” value in data set [1] (69.3 mg/kg DA, BID, vs vehicle) is listed as “significant effect against DSS-induced body weight loss”. Moreover, in data set [1] (DA 23.1 and 69.3 mg/kg bid), the “combined fecal score during the study period” value is “significant main effect”, the “fecal consistency score during the study period” value was “significant main effect” and the “fecal occult blood scores during the study period” value is “significant main effect”. For the same compound, the “body weight changes during the study period” value in data set [1] (DA 23.1 and 69.3 mg/kg bid, P=0.0052) is listed as “significant main effect”. For the same compound, in data set [1] (setting [2]), the “colon length at day 10” value is “could counteract DSS-induced decrease” and the “colon weight at day 10” value is “could counteract DSS-induced decrease”. Also, in data set [1] (high-dose of DA, no significant effect observed), the “spleen weight at day 10” value is reported as “trend to counteract DSS-induced spleen weight loss”.
